Laboratory results as given in patent US11261183B2, “Sulfoximine glycosidase inhibitors” (Asceneuron SA, priority 2016, dated 2022).

Key:
[1] = target: Human O-GlcNAcase (His-Tagged hOGA) (Homo sapiens (Human), UniProt O60502); test: Human O-GlcNAcase enzyme inhibition assay; format: biochemical; settings: His-Tagged hOGA 20 nM, FL-GlcNAc 10 μM, 60 min, room temperature, pH 6.5; read-out: Enzymatic OGA IC50
Procedure: Example B01: Human O-GlcNAcase enzyme inhibition assay
5 μl of the appropriate concentration of a solution of inhibitor in McIlvaine's Buffer (pH 6.5) in 2% DMSO (for a dose response curve calculation) is added into each well of a 384-well plate (Greiner, 781900). Then, 20 nM of His-Tagged hOGA and 10 μM of FL-GlcNAc (Fluorescein mono-beta-D-(2-deoxy-2-N-acetyl) glucopyranoside; Marker Gene Technologies Inc, M1485) were added to the 384-well plate for a final volume of 20 μl. After incubation for 60 min at room temperature, the reaction was terminated by the addition of 10 μL of stop buffer (200 mM glycine, pH 10.75).

[2] = Protein binding in mice plasma using Rapid Equilibrium Dialysis; format: in vitro ADME, CD1 mice; settings: 37° C.; for fraction unbound at 5 h, 1 µM: male, CD1, mouse, plasma, pH 7.4, CD1 mouse plasma
Procedure: Example B04: Protein binding in mice plasma using Rapid Equilibrium Dialysis
• CD1 Mice Plasma: pooled male, K2-EDTA ([…]2, Bioreclammation, USA • Phosphate Buffered Saline (1×PBS), pH 7.4, 100 mM (Sigma, Cat No. P4417) • RED inserts (Pierce, Cat No. 9006, 8 kDa MWCO) • Sample Analysis: LC-MS/MS Methods • Preparation of DMSO Stock Solution
From 20 mM DMSO stock solutions of reference and test compounds, 1 mM DMSO intermediate working solutions are prepared. From 1 mM intermediate working solutions, 100 μM DMSO working solutions are prepared. • Sample Preparation Procedure:
Selected plasma is brought from −20° C. to 37° C. using water bath before its use. Test solution is prepared by adding the DMSO working solution of the reference or test compound (2 μL; 100 μM) to the selected plasma (198 μL). Spiked plasma (200 μl) is transferred to sample compartment of RED insert placed in the teflon plate. 350 μl of 1×PBS is added in the buffer compartment of RED insert. The teflon plate is covered with sealing mat and agitated at 37° C. for 5 hours at 500 RPM in a Thermomixer. After incubation time, an aliquot of plasma (50 μl) from sample compartment is mixed with blank 1×PBS (50 μl). Similarly, an aliquot of buffer (50 μl) from buffer compartment is mixed with blank plasma (50 μl). Quenching solution (200 μL, acetonitrile containing internal standard tolbutamide (0.5 μg/mL)) is added and the resulting solutions are mixed using a vortex mixer and centrifuged (Eppendorf 5415, 13792 g). Supernatants are analyzed using a Mass Spectrometer. The sample (supernatant fraction, 5 μL) is injected into the LC-MS/MS instrument. • Chromatographic Conditions: LC-MS/MS: API 4000 LC-MS/MS Software: Analyst Version 1.6.1 Column Phenomenex Synergy 30*4.6*5μ Column Oven: 40° C. Mode: ESI Positive Injection volume: 5 μl Flow Rate: […] Buffer: 0.1% Formic acid in Water Method: Isocratic Method/Gradient Composition: A) 0.1% Formic acid in Water B) 0.1% Formic acid in Methanol
After the concentration of free drug and total drug has been determined by LCMS/MS, percent plasma protein binding can be calculated as follows:
[formula] Following this protocol, % fraction unbound in plasma from different species can be also measured.

Human O-GlcNAcase (His-Tagged hOGA), sequence (O60502 whole entry): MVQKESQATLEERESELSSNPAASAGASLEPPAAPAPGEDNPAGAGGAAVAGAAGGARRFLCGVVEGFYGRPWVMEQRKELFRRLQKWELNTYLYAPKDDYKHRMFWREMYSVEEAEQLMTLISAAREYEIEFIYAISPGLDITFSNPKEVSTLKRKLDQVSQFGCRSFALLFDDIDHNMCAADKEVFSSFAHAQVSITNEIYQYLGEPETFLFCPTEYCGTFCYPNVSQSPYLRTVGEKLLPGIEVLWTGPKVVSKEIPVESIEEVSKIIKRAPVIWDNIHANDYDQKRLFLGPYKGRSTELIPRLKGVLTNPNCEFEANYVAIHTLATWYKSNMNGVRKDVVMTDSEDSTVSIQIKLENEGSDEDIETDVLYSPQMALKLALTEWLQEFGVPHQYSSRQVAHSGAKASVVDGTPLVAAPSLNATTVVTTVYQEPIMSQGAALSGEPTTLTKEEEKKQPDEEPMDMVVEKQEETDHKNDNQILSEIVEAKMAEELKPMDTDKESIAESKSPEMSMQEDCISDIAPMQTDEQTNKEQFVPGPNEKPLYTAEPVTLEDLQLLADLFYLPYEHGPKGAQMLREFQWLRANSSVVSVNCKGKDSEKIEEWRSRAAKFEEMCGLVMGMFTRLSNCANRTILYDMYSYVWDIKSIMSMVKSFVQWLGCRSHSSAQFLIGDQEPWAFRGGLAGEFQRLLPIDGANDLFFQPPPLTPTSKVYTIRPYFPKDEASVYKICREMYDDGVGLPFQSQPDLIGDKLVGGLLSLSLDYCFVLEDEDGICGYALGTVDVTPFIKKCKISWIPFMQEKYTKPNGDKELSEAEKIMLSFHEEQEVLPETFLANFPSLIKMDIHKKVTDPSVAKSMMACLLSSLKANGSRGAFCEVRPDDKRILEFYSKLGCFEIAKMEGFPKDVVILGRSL

Structure (SMILES) | IC50 [1] | fraction unbound at 5 h, 1 µM [2] | % fraction unbound in mouse plasma ([2]; CD1 mouse plasma, 5 hours)
CCN=S(C)(=O)c1cnc(N2CCN(C(C)c3ccc4scnc4c3)CC2)nc1 (racemic) [Example 27] | < 50 nM | 0.186 | –
CC(c1ccc2c(c1)OCC2)N1CCN(c2ncc(N=S(C)(C)=O)cn2)CC1 (racemic) [Example 9] | < 50 nM | 0.376 | –
CCS(=N)(=O)c1cnc(N2CCN(C(C)c3ccc4c(c3)OCC4)CC2)nc1 (racemic) [Example 3, (2-(4-(1-(2,3-dihydrobenzofuran-6-yl)ethyl)piperazin-1-yl)pyrimidin-5-yl)(ethyl)(imino)-λ^6-sulfanone] | < 50 nM | 0.25 | –
CC(c1ccc2scnc2c1)N1CCN(c2ncc(S(C)(=N)=O)cn2)CC1 (racemic) [Example 22, (2-(4-(1-(benzo[d]thiazol-5-yl)ethyl)piperazin-1-yl)pyrimidin-5-yl)(imino)(methyl)-λ^6-sulfanone] | < 50 nM | 0.248 | –
CN=S(C)(=O)c1cnc(N2CCN(C(C)c3ccc4sc(C)nc4c3)CC2)nc1 (racemic) [Example 45, methyl(2-(4-(1-(2-methylbenzo[d]thiazol-5-yl)ethyl)piperazin-1-yl)pyrimidin-5-yl)(methylimino)-λ^6-sulfanone] | < 50 nM | 0.214 | –
CN=S(C)(=O)c1cnc(N2CCN(C(C)c3ccc4c(c3)OCC4)CC2)nc1 (racemic) [Example 8, (2-(4-(1-(2,3-dihydrobenzofuran-6-yl)ethyl)piperazin-1-yl)pyrimidin-5-yl)(methyl)(methylimino)-λ^6-sulfanone] | < 50 nM | 0.234 | –
CC(c1ccc2c(c1)OCC2)N1CCN(c2ncc(S(C)(=N)=O)cn2)CC1 (racemic) [Example 1, (2-(4-(1-(2,3-dihydrobenzofuran-6-yl)ethyl)piperazin-1-yl)pyrimidin-5-yl)(imino)(methyl)λ^6-sulfanone] | < 50 nM | 0.393 | –
CC(c1ccc2c(c1)OCC2)N1CCN(c2ncc(S(C)(=N)=O)cn2)CC1 (single isomer, unassigned) [Example 14] | < 50 nM | – | 35.63%
Cc1nc2cc(C(C)N3CCN(c4ncc(S(C)(=N)=O)cn4)CC3)ccc2o1 (racemic) [Example 55, imino(methyl)(2-(4-(1-(2-methylbenzo[d]oxazol-5-yl)ethyl)piperazin-1-yl)pyrimidin-5-yl)-λ^6-sulfanone] | 50 to 200 nM | 0.39 | –
CC(c1ccc2c(c1)OCCC2)N1CCN(c2ncc(S(C)(=N)=O)cn2)CC1 (racemic) [Example 21, (2-(4-(1-(chroman-7-yl)ethyl)piperazin-1-yl)pyrimidin-5-yl)(imino)(methyl)-λ^6-sulfanone] | 50 to 200 nM | 0.222 | –
CC(c1ccc2scnc2c1)N1CCN(c2ncc(N=S(C)(C)=O)cn2)CC1 (racemic) [Example 31, ((2-(4-(1-(benzo[d]thiazol-5-yl)ethyl)piperazin-1-yl)pyrimidin-5-yl)imino)dimethyl-λ^6-sulfanone] | < 50 nM | 0.229 | –
CC(c1ccc2c(c1)OCC2)N1CCN(c2ccc(S(C)(=N)=O)cn2)CC1 (racemic) [Example 7, (6-(4-(1-(2,3-dihydrobenzofuran-6-yl)ethyl)piperazin-1-yl)pyridin-3-yl)(imino)(methyl)-Δ^6-sulfanone] | < 50 nM | 0.294 | –
COCCN=S(C)(=O)c1cnc(N2CCN(C(C)c3ccc4c(c3)OCC4)CC2)nc1 (single isomer, unassigned) [Example 17] | < 50 nM | 0.208 | –
